Results: paper PMC7777204, “Locking mixed-lineage kinase domain-like protein in its auto-inhibited state prevents necroptosis” (Proceedings of the National Academy of Sciences of the …, 2020)

Assays:
[1] = test system: U937 cells; experiment: U937 apoptosis assay; format: cell-based; conditions: Homo sapiens, U-937, 100 ng/mL huTNFα plus 3 µM NSA, read-out: U937 APOP IC50
Method: MLKL antagonists were also evaluated in a necroptosis assay with U937 cells ([26]) (ATCC catalog no. CRL-1593.2). The assay procedure with U937 cells was as described for the Jurakt FADD^−/− necroptosis assay with the following modifications: 8,000 cells were seeded per well, and, in addition to the recombinant huTNFα, cells were also incubated in the presence of 10 µM (f.c.) carbobenzoxy-valyl-alanyl-aspartyl-[O-methyl]-fluoromethylketone (zVAD-fmk) (Enzo Life Sciences catalog no. ALX-260-020). Low controls (0% CTL) were defined as cells treated with 100 ng/mL recombinant huTNFα plus 10 µM zVAD-fmk.
Furthermore, MLKL antagonists were tested in a U937 apoptosis assay in the presence of 3 µM (f.c.) NSA (Tocris catalog no. 5025) and 100 ng/mL (f.c.) recombinant huTNFα in the same way as described for the U937 necroptosis assay. Low controls (0% CTL) were defined as cells treated with 100 ng/mL recombinant huTNFα plus 3 µM NSA.
All cellular assays were done for Cpd 1, Cpd 2, Cpd 3, Cpd 4, and Cpd 5 in duplicate and in quadruplet for NSA.

[2] = biological target: T1, MLKL F148A executioner domain (Homo sapiens, UniProt Q8NB16, F148A); experiment: Functional NMR assay (detachment of α-helix 6), F148A variant; format: biochemical
T1 construct: 80 µM MLKL N-terminal executioner domain (residues 1 to 154) was used; GST (thrombin cleavage site) (cleaved yes)
T1 sequence (Q8NB16 1-154 F148A): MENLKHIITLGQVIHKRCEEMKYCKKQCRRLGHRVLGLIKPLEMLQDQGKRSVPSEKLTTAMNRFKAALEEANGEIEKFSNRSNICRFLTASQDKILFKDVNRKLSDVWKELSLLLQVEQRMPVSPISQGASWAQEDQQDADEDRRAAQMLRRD
From the text: To test the significance of the additional interaction between α-helix 6 and the four-helix bundle provided by the xanthine compounds stacking to the phenyl ring of Phe148, we used a described functional NMR assay ([12]). Binding of phytic acid (IP6) and the detergent β-D-nonylmaltoside (NM) led to the detachment of α-helix 6, which can be monitored in ^1H,^15N-correlation spectra by the altered chemical shift of the Hε1–Nε1 correlation of Trp133 and the backbone N–H correlation of Ala141 ([12]). […] Adding 12 mM NM or 500 µM IP6 led to the appearance of a second very weak peak reporting on the detached α-helix 6 with a population of the activated state (pact) of 1% and 4%, respectively (Fig. 3). […]
Fig. 3. […] The spectra depicted in A are measured with the WT protein and in B with the F148A variant. […] The asterisk means that no active conformation could be detected. Double asterisks indicate data not determined.
For the functional NMR assay ^1H,^15N-correlation spectra were recorded on a Bruker Avance III HD 600-MHz NMR spectrometer equipped with a cryogenic QCI probe in 2.5-mm NMR tubes at 298 K. Spectra were recorded with 64 complex points in the indirect dimension, 96 scans, and an interscan delay of 2 s. […] Spectra were analyzed, and peaks were integrated in CcpNnmr analysis ([39]).

## Cn1c(=O)c2c(nc(S(C)(=O)=O)n2C)n(CC#Cc2cccc(O)c2)c1=O [Cpd 3]
[1]
  IC50: > 100 µM
[2]; 500 µM compound alone
  Induction of the active state by compound alone: small population of the active state
[2]; 12 mM NM + 500 µM IP6 + 500 µM compound
  Population of the activated state (pact), α-helix 6 detached: 90%
